Measurements taken from patent publication US11045482B2, “Use of glucocorticoid receptor modulators in the treatment of catecholamine-secreting tumors” (Corcept Therapeutics, Inc., priority 2017, dated 2021).

Key:
[1] = system: rat phenylethanolamine N-methyltransferase (PNMT) gene promoter; conditions: RU486 10 μM; cited from earlier work
[2] = system: metastatic pheochromocytoma associated with ectopic ACTH secretion; assay: Case of a person with metastatic pheochromocytoma and Cushing syndrome given mifepristone (Example 1); assay type: in vivo, human
Procedure: A person with metastatic pheochromocytoma associated with ectopic ACTH secretion unresponsive to conventional chemotherapy with CVD (cyclophosphamide, vincristine and dacarbazine) and Sunitinib (tyrosine kinase inhibitors) was enrolled in a phase 2 study with a somatostatin analog. […] At the same time the diagnosis of Cushing syndrome was made and 300 mg of Mifepristone was added to their regimen and the dose was further increased to 600 mg daily two weeks later. […] The plasma epinephrine level after 2 weeks of therapy with mifepristone was decreased by 50%, and the plasma metanephrine level was decreased by 25% after 9 weeks of therapy.

[3] = system: metastatic or unresectable catecholamine-secreting tumor; assay: Patient with metastatic or unresectable catecholamine-secreting tumor: blood catecholamine level after five weeks of treatment (Examples 2-77); assay type: in vivo, human
Procedure: A patient having a metastatic or unresectable catecholamine-secreting tumor, who is not in need of treatment with a glucocorticoid receptor antagonist, and is not receiving exogenous glucocorticoid receptor agonist treatment, is administered an effective amount of mifepristone at a daily dose of 50 mg/kg/day.
A patient having a metastatic or unresectable catecholamine-secreting tumor, who is not in need of treatment with a glucocorticoid receptor antagonist, and is not receiving exogenous glucocorticoid receptor agonist treatment, is administered an effective amount of mifepristone at a daily dose of 20 mg/kg/day.
A patient having a metastatic or unresectable catecholamine-secreting tumor, who is not in need of treatment with a glucocorticoid receptor antagonist, and is not receiving exogenous glucocorticoid receptor agonist treatment, is administered an effective amount of mifepristone at a daily dose of 15 mg/kg/day.
A patient having a metastatic or unresectable catecholamine-secreting tumor, who is not in need of treatment with a glucocorticoid receptor antagonist, and is not receiving exogenous glucocorticoid receptor agonist treatment, is administered an effective amount of mifepristone at a daily dose of 10 mg/kg/day.
A patient having a metastatic or unresectable catecholamine-secreting tumor, who is not in need of treatment with a glucocorticoid receptor antagonist, and is not receiving exogenous glucocorticoid receptor agonist treatment, is administered an effective amount of mifepristone at a daily dose of 5 mg/kg/day.
A patient having a metastatic or unresectable catecholamine-secreting tumor, who is not in need of treatment with a glucocorticoid receptor antagonist, and is not receiving exogenous glucocorticoid receptor agonist treatment, is administered an effective amount of mifepristone at a daily dose of 50 mg/kg/day, and is also administered chemotherapy.
A patient having a metastatic or unresectable catecholamine-secreting tumor, who is not in need of treatment with a glucocorticoid receptor antagonist, and is not receiving exogenous glucocorticoid receptor agonist treatment, is administered an effective amount of mifepristone at a daily dose of 20 mg/kg/day, and is also administered chemotherapy.
A patient having a metastatic or unresectable catecholamine-secreting tumor, who is not in need of treatment with a glucocorticoid receptor antagonist, and is not receiving exogenous glucocorticoid receptor agonist treatment, is administered an effective amount of mifepristone at a daily dose of 15 mg/kg/day, and is also administered chemotherapy.
A patient having a metastatic or unresectable catecholamine-secreting tumor, who is not in need of treatment with a glucocorticoid receptor antagonist, and is not receiving exogenous glucocorticoid receptor agonist treatment, is administered an effective amount of mifepristone at a daily dose of 10 mg/kg/day, and is also administered chemotherapy.
A patient having a metastatic or unresectable catecholamine-secreting tumor, who is not in need of treatment with a glucocorticoid receptor antagonist, and is not receiving exogenous glucocorticoid receptor agonist treatment, is administered an effective amount of mifepristone at a daily dose of 5 mg/kg/day, and is also administered chemotherapy.
A patient having a metastatic or unresectable catecholamine-secreting tumor, who is not in need of treatment with a glucocorticoid receptor antagonist, and is not receiving exogenous glucocorticoid receptor agonist treatment, is administered an effective amount of mifepristone at a daily dose of 50 mg/kg/day, and is also administered an adrenergic antagonist. […]

[4] = after 3 months of therapy with mifepristone
[5] = one week after the discontinuation of mifepristone

Compound: CC#C[C@]1(O)CC[C@H]2[C@@H]3CCC4=CC(=O)CCC4=C3[C@@H](c3ccc(N(C)C)cc3)C[C@@]21C [mifepristone, 11β-(4-dimethylaminophenyl)-17β-hydroxy-17α-(1-propynyl)-estra-4,9-dien-3-one]
- inhibition of dexamethasone (1 μM) activation of the PNMT promoter [1]: fully inhibited
- plasma epinephrine level decreased by ([2]; after 2 weeks of therapy with mifepristone (300 mg)): 50%
- metanephrine level [2, 4]: slightly elevated
- symptoms of catecholamine excess [2, 4]: controlled
- adverse event ([2]; after 3 months of therapy, mifepristone temporarily withheld): vaginal bleeding
- plasma metanephrine level decreased by ([2]; after 9 weeks of therapy (300 mg, increased to 600 mg daily two weeks later)): 25%
- metanephrine measurement after discontinuation compared to the level during mifepristone dosing [2, 5]: fourfold increase
- symptoms of catecholamine excess after discontinuation [2, 5]: worse symptoms of catecholamine excess
- symptoms related to cortisol excess as well as to catecholamine excess ([2]; one week after the institution of mifepristone (300 mg), added to somatostatin analog, atenolol, phenoxybenzamine): dramatic improvement
- blood level of a catecholamine after five weeks of treatment as compared to the initial level ([3]; daily dose of 1 mg/kg/day, also administered somatostatin): lower
- blood level of a catecholamine after five weeks of treatment as compared to the initial level ([3]; daily dose of 5 mg/kg/day): lower
- blood level of a catecholamine after five weeks of treatment as compared to the initial level ([3]; daily dose of 5 mg/kg/day, also administered a somatostatin analog): lower
- blood level of a catecholamine after five weeks of treatment as compared to the initial level ([3]; daily dose of 5 mg/kg/day, also administered an adrenergic antagonist): lower
- blood level of a catecholamine after five weeks of treatment as compared to the initial level ([3]; daily dose of 5 mg/kg/day, also administered chemotherapy): lower
- blood level of a catecholamine after five weeks of treatment as compared to the initial level ([3]; daily dose of 5 mg/kg/day, also administered somatostatin): lower
- blood level of a catecholamine after five weeks of treatment as compared to the initial level ([3]; daily dose of 5 mg/kg/day, also receives Peptide Receptor Radionuclide Therapy): lower
- blood level of a catecholamine after five weeks of treatment as compared to the initial level ([3]; daily dose of 10 mg/kg/day): lower
- blood level of a catecholamine after five weeks of treatment as compared to the initial level ([3]; daily dose of 10 mg/kg/day, also administered a somatostatin analog): lower
- blood level of a catecholamine after five weeks of treatment as compared to the initial level ([3]; daily dose of 10 mg/kg/day, also administered an adrenergic antagonist): lower
- blood level of a catecholamine after five weeks of treatment as compared to the initial level ([3]; daily dose of 10 mg/kg/day, also administered chemotherapy): lower
- blood level of a catecholamine after five weeks of treatment as compared to the initial level ([3]; daily dose of 10 mg/kg/day, also administered somatostatin): lower
- blood level of a catecholamine after five weeks of treatment as compared to the initial level ([3]; daily dose of 10 mg/kg/day, also receives Peptide Receptor Radionuclide Therapy): lower
- blood level of a catecholamine after five weeks of treatment as compared to the initial level ([3]; daily dose of 15 mg/kg/day): lower
- blood level of a catecholamine after five weeks of treatment as compared to the initial level ([3]; daily dose of 15 mg/kg/day, also administered a somatostatin analog): lower
- blood level of a catecholamine after five weeks of treatment as compared to the initial level ([3]; daily dose of 15 mg/kg/day, also administered chemotherapy): lower
- blood level of a catecholamine after five weeks of treatment as compared to the initial level ([3]; daily dose of 15 mg/kg/day, also receives Peptide Receptor Radionuclide Therapy): lower
- blood level of a catecholamine after five weeks of treatment as compared to the initial level ([3]; daily dose of 20 mg/kg/day): lower
- blood level of a catecholamine after five weeks of treatment as compared to the initial level ([3]; daily dose of 20 mg/kg/day, also administered a somatostatin analog): lower
- blood level of a catecholamine after five weeks of treatment as compared to the initial level ([3]; daily dose of 20 mg/kg/day, also administered an adrenergic antagonist): lower
- blood level of a catecholamine after five weeks of treatment as compared to the initial level ([3]; daily dose of 20 mg/kg/day, also administered an adrenergic antagonist and Peptide Receptor Radionuclide Therapy): lower
- blood level of a catecholamine after five weeks of treatment as compared to the initial level ([3]; daily dose of 20 mg/kg/day, also administered chemotherapy): lower
- blood level of a catecholamine after five weeks of treatment as compared to the initial level ([3]; daily dose of 20 mg/kg/day, also administered chemotherapy and a somatostatin analog): lower
- blood level of a catecholamine after five weeks of treatment as compared to the initial level ([3]; daily dose of 20 mg/kg/day, also administered chemotherapy and an adrenergic antagonist): lower
- blood level of a catecholamine after five weeks of treatment as compared to the initial level ([3]; daily dose of 20 mg/kg/day, also administered chemotherapy and somatostatin): lower
- blood level of a catecholamine after five weeks of treatment as compared to the initial level ([3]; daily dose of 20 mg/kg/day, also administered somatostatin): lower
- blood level of a catecholamine after five weeks of treatment as compared to the initial level ([3]; daily dose of 20 mg/kg/day, also receives Peptide Receptor Radionuclide Therapy): lower
- blood level of a catecholamine after five weeks of treatment as compared to the initial level ([3]; daily dose of 50 mg/kg/day): lower
- blood level of a catecholamine after five weeks of treatment as compared to the initial level ([3]; daily dose of 50 mg/kg/day, also administered an adrenergic antagonist): lower
- blood level of a catecholamine after five weeks of treatment as compared to the initial level ([3]; daily dose of 50 mg/kg/day, also administered chemotherapy): lower
- blood level of a catecholamine after five weeks of treatment as compared to the initial level ([3]; single pharmaceutical composition comprising 50 mg mifepristone and a somatostatin analog, daily for five weeks): lower
- blood level of a catecholamine after five weeks of treatment as compared to the initial level ([3]; single pharmaceutical composition comprising 50 mg mifepristone and an adrenergic antagonist, daily for five weeks, also chemotherapy): lower
- blood level of a catecholamine after five weeks of treatment as compared to the initial level ([3]; single pharmaceutical composition comprising 50 mg mifepristone and somatostatin, daily for five weeks): lower
- blood level of a catecholamine after five weeks of treatment as compared to the initial level ([3]; single pharmaceutical composition comprising 100 mg mifepristone and a somatostatin analog, daily for five weeks): lower
- blood level of a catecholamine after five weeks of treatment as compared to the initial level ([3]; single pharmaceutical composition comprising 100 mg mifepristone and an adrenergic antagonist, daily for five weeks): lower
- blood level of a catecholamine after five weeks of treatment as compared to the initial level ([3]; single pharmaceutical composition comprising 100 mg mifepristone and an adrenergic antagonist, daily for five weeks, also chemotherapy): lower
- blood level of a catecholamine after five weeks of treatment as compared to the initial level ([3]; single pharmaceutical composition comprising 100 mg mifepristone and somatostatin, daily for five weeks): lower
- blood level of a catecholamine after five weeks of treatment as compared to the initial level ([3]; single pharmaceutical composition comprising 300 mg mifepristone and a somatostatin analog, daily for five weeks): lower
- blood level of a catecholamine after five weeks of treatment as compared to the initial level ([3]; single pharmaceutical composition comprising 300 mg mifepristone and an adrenergic antagonist, daily for five weeks): lower
- blood level of a catecholamine after five weeks of treatment as compared to the initial level ([3]; single pharmaceutical composition comprising 300 mg mifepristone and an adrenergic antagonist, daily for five weeks, also chemotherapy): lower
- blood level of a catecholamine after five weeks of treatment as compared to the initial level ([3]; single pharmaceutical composition comprising 300 mg mifepristone and somatostatin, daily for five weeks): lower
